# Assay results taken from ChEMBL document CHEMBL5442379, “ASAP - SARS-CoV-2 nsp3 macrodomain single point” (2024).
# Target: Replicase polyprotein 1ab (Severe acute respiratory syndrome coronavirus 2) (UniProt P0DTD1)
# [1] = Concentration 50.0 uM, Number of replicates 2.0, Standard deviation 0.519 %
# Description: Functional biochemical assay to identify treatments for viral infectious disease that targets SARS-COV-2 nsp3 macrodomain, whereby the mechanism of action displaces an ADP-Ribose modified peptide from the binding site. Utilizing a time-resolved fluorescence method to measure binding by reading the emitted fluorescence intensity in two wavelengths.
smiles,measurement,setting,value
O=C1C[C@H](CNC(=O)c2ccc(NC(=O)Nc3ccccc3)cc2)CCN1,inhibition,"Concentration 49.75 uM, Number of replicates 2.0, Standard deviation 1.043 %",1.22%
same,inhibition,"Concentration 99.5 uM, Number of replicates 2.0, Standard deviation 0.12 %",4.01%
CN(Cc1cn(C)nn1)C(=O)c1ccc(NC(=O)Nc2ccccc2)cc1,inhibition,"Concentration 49.75 uM, Number of replicates 2.0, Standard deviation 0.56 %",0.883%
same,inhibition,"Concentration 99.5 uM, Number of replicates 2.0, Standard deviation 3.63 %",0.566%
Cc1ccc(NC(=O)c2cnn3ccc(C4CCN(C(=O)c5ccccc5)CC4)cc23)cc1C(=O)O,inhibition,"Concentration 49.75 uM, Number of replicates 2.0, Standard deviation 0.305 %",-1.05%
same,inhibition,"Concentration 99.5 uM, Number of replicates 2.0, Standard deviation 2.043 %",-0.624%
Cn1nc(NC(=O)c2cc(-c3ccco3)[nH]n2)c2nccnc21,inhibition,"Concentration 50.0 uM, Number of replicates 2.0, Standard deviation 0.879 %",-5.4%
O=C(NCc1ccc(Cl)cn1)c1ncnc2[nH]ccc12,inhibition,"Concentration 50.0 uM, Number of replicates 2.0, Standard deviation 1.293 %",-4.96%
same,inhibition,"Concentration 100.0 uM, Number of replicates 2.0, Standard deviation 0.093 %",-2.57%
Cc1cc(NCc2ncccc2O)ncn1,inhibition,"Concentration 50.0 uM, Number of replicates 2.0, Standard deviation 4.706 %",-3.33%
COCc1cc(CNc2cc3c(O)ncnc3cn2)no1,inhibition,"Concentration 50.0 uM, Number of replicates 2.0, Standard deviation 0.223 %",3.31%
Cc1ncc(C(=O)N(CCC(=O)N2CCNCC2)Cc2cccc(Cl)c2)cc1N,inhibition,"Concentration 49.75 uM, Number of replicates 2.0, Standard deviation 3.028 %",1.35%
same,inhibition,"Concentration 99.5 uM, Number of replicates 2.0, Standard deviation 0.599 %",1.3%
O=C1CC[C@@H](CNC(=O)c2cnn3ccc(C4CCN(C(=O)c5ccccc5)CC4)cc23)N1,inhibition,"Concentration 49.75 uM, Number of replicates 2.0, Standard deviation 1.276 %",-2.32%
same,inhibition,"Concentration 99.5 uM, Number of replicates 2.0, Standard deviation 4.674 %",-1.47%
Cc1ncc(NCc2ncn(C)c2Cl)cc1C(N)=O,inhibition,"Concentration 50.0 uM, Number of replicates 2.0, Standard deviation 1.923 %",2.41%
CC(=O)Nc1ccc(S(=O)(=O)NNc2ncnc3sccc23)cc1,inhibition,"Concentration 50.0 uM, Number of replicates 2.0, Standard deviation 2.273 %",5.36%
CC[C@@H]1C[C@@H](C(=O)Nc2ncnc3[nH]c(C)c(C)c23)CCO1,inhibition,"Concentration 50.0 uM, Number of replicates 2.0, Standard deviation 1.684 %",12.1%
O=C(c1ccc(O)nc1)N1CCC(c2ccn3ncc(C(=O)N4CCCCC4)c3c2)CC1,inhibition,"Concentration 49.75 uM, Number of replicates 2.0, Standard deviation 5.093 %",11%
same,inhibition,"Concentration 99.5 uM, Number of replicates 2.0, Standard deviation 0.548 %",26.5%
O=C(NCC1(O)CCOCC1)c1cnn2ccc(C3CCN(C(=O)c4ccccc4)CC3)cc12,inhibition,"Concentration 49.75 uM, Number of replicates 2.0, Standard deviation 3.347 %",-3.96%
same,inhibition,"Concentration 99.5 uM, Number of replicates 2.0, Standard deviation 3.334 %",-1.1%
O=C(Nc1ccccc1)Nc1ccc(C(=O)N2CCn3nccc3C2)cc1,inhibition,"Concentration 49.75 uM, Number of replicates 2.0, Standard deviation 2.554 %",-3.11%
same,inhibition,"Concentration 99.5 uM, Number of replicates 2.0, Standard deviation 2.469 %",2.3%
O=C(Nc1cnc2[nH]ncc2c1)C1(c2ccccc2)CC1,inhibition,"Concentration 50.0 uM, Number of replicates 2.0, Standard deviation 8.824 %",3.21%
Cc1nc(C(=O)N2CCC(c3ccn4ncc(C(=O)N5CCCCC5)c4c3)CC2)c(=O)[nH]c1C,inhibition,"Concentration 49.75 uM, Number of replicates 2.0, Standard deviation 2.437 %",26.4%
same,inhibition,"Concentration 99.5 uM, Number of replicates 2.0, Standard deviation 0.005 %",44.2%
O=C(NCc1nc(-c2ccco2)n[nH]1)c1cc2nccn2c(=O)[nH]1,inhibition,"Concentration 50.0 uM, Number of replicates 2.0, Standard deviation 0.515 %",-5.42%
Oc1ccccc1CNc1ncnc2cccnc12,inhibition,"Concentration 49.75 uM, Number of replicates 2.0, Standard deviation 0.51 %",-1.84%
same,inhibition,"Concentration 99.5 uM, Number of replicates 2.0, Standard deviation 1.128 %",-0.535%
Cn1cc(Br)c(CNC(=O)c2ccc(NC(=O)Nc3ccccc3)cc2)n1,inhibition,"Concentration 49.75 uM, Number of replicates 2.0, Standard deviation 4.908 %",4.31%
same,inhibition,"Concentration 99.5 uM, Number of replicates 2.0, Standard deviation 1.253 %",1.2%
CN(C)[C@@H]1CCCN(C(=O)c2cnc3c(c2)c(=O)[nH]c(=O)n3C)CC1,inhibition,"Concentration 50.0 uM, Number of replicates 2.0, Standard deviation 1.745 %",-8.97%
O=C(NCCn1cncn1)c1cnn2ccc(C3CCN(C(=O)c4ccccc4)CC3)cc12,inhibition,"Concentration 49.75 uM, Number of replicates 2.0, Standard deviation 1.365 %",-3.7%
same,inhibition,"Concentration 99.5 uM, Number of replicates 2.0, Standard deviation 1.7 %",-2.57%
O=C(c1cccnc1O)N1CCC(c2ccn3ncc(C(=O)N4CCCCC4)c3c2)CC1,inhibition,"Concentration 49.75 uM, Number of replicates 2.0, Standard deviation 3.415 %",-7.04%
same,inhibition,"Concentration 99.5 uM, Number of replicates 2.0, Standard deviation 3.017 %",-3.94%
c1nc(-c2nc(-c3cc(C4CC4)[nH]n3)no2)c2cc[nH]c2n1,inhibition,"Concentration 50.0 uM, Number of replicates 2.0, Standard deviation 1.585 %",-4.8%
same,inhibition,"Concentration 50.0 uM, Number of replicates 2.0, Standard deviation 2.643 %",-2.81%
same,inhibition,"Concentration 100.0 uM, Number of replicates 2.0, Standard deviation […]",-2.45%
O=C(N[C@H](Cn1cnc2cc(F)c(F)cc21)C(=O)O)c1ncnc2[nH]ccc12,inhibition,"Concentration 49.75 uM, Number of replicates 2.0, Standard deviation 5.178 %",-2.04%
same,inhibition,"Concentration 99.5 uM, Number of replicates 2.0, Standard deviation 0.435 %",8.39%
CC(C)[C@@H](Nc1ncnc2n[nH]cc12)c1cnn(C)c1,inhibition,"Concentration 50.0 uM, Number of replicates 2.0, Standard deviation 1.634 %",63.5%
Cc1ccc(S(=O)(=O)Nc2ccccc2F)cc1C(=O)Nc1cnc2[nH]ncc2c1,inhibition,"Concentration 50.0 uM, Number of replicates 2.0, Standard deviation 3.248 %",0.764%
Cc1nn(-c2ccccc2)c(C)c1[C@H]1COCCN1c1ncnc2[nH]ccc12,inhibition,"Concentration 49.75 uM, Number of replicates 2.0, Standard deviation 1.442 %",-0.042%
same,inhibition,"Concentration 99.5 uM, Number of replicates 2.0, Standard deviation 1.631 %",-4.22%
CC(C)[C@@H](Nc1ncnc2[nH]ccc12)C(N)=O,inhibition,"Concentration 49.75 uM, Number of replicates 2.0, Standard deviation 3.584 %",64.4%
same,inhibition,"Concentration 99.5 uM, Number of replicates 2.0, Standard deviation 5.819 %",77.7%
Cc1[nH]c2ncnc(NC(=O)C3CCC(F)(F)CC3)c2c1C,inhibition,[1],2.15%
O=C(N[C@@H]1COCC[C@H]1O)c1cnn2ccc(C3CCN(C(=O)c4ccccc4)CC3)cc12,inhibition,"Concentration 49.75 uM, Number of replicates 2.0, Standard deviation 1.335 %",-5.01%
same,inhibition,"Concentration 99.5 uM, Number of replicates 2.0, Standard deviation 2.833 %",-4.48%
Cn1nc(C(=O)O)cc1C(=O)N1CCC(c2ccn3ncc(C(=O)N4CCCCC4)c3c2)CC1,inhibition,"Concentration 49.75 uM, Number of replicates 2.0, Standard deviation 5.569 %",34.2%
same,inhibition,"Concentration 99.5 uM, Number of replicates 2.0, Standard deviation 2.729 %",52.7%
CCc1nc(CN(C)c2nc(C)nc3[nH]ccc23)cs1,inhibition,"Concentration 50.0 uM, Number of replicates 2.0, Standard deviation 3.767 %",-6.13%
Cc1cccc(Cl)c1S(=O)(=O)Nc1cnc2[nH]ncc2c1,inhibition,"Concentration 50.0 uM, Number of replicates 2.0, Standard deviation 1.912 %",-0.254%
O=C(NCc1ncccn1)c1cnn2ccc(C3CCN(C(=O)c4ccccc4)CC3)cc12,inhibition,"Concentration 49.75 uM, Number of replicates 2.0, Standard deviation 2.653 %",-0.074%
same,inhibition,"Concentration 99.5 uM, Number of replicates 2.0, Standard deviation 0.514 %",-6.66%
COc1cccc(Cl)c1CNc1ncnc2[nH]ncc12,inhibition,[1],-1.83%
O=C(CCN(Cc1cccc(Cl)c1)C(=O)[C@@H]1CNCC12CC2)N1CCNCC1,inhibition,"Concentration 49.75 uM, Number of replicates 2.0, Standard deviation 4.003 %",4.21%
same,inhibition,"Concentration 99.5 uM, Number of replicates 2.0, Standard deviation 2.443 %",2.38%
OC[C@@H](Nc1ncnc2[nH]c(I)cc12)c1ccccc1,inhibition,"Concentration 50.0 uM, Number of replicates 2.0, Standard deviation 1.35 %",26.1%
c1cnc([C@@H]2CCN(c3ncnc4[nH]ccc34)C2)cn1,inhibition,"Concentration 50.0 uM, Number of replicates 2.0, Standard deviation 2.663 %",-1.7%
c1nc(N2CCC[C@@H](c3nc4c(s3)CCC4)C2)c2c[nH]nc2n1,inhibition,"Concentration 50.0 uM, Number of replicates 2.0, Standard deviation 1.131 %",3.83%
